Measured values from PubChem BioAssay (NCI).
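96-well plates; 48 h exposure; 5 concentrations. Endpoints by linear interpolation between flanking doses. Not reached: highest tested concentration assigned. TGI denotes the concentration required for complete inhibition of growth.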

What was measured:
Test in all cases: inhibition of tumour cell growth, NCI panel, 48 h
K-562 leukemia = system: K-562 leukemia
RXF 393 renal = system: RXF 393 renal
HCC-2998 colon = system: HCC-2998 colon
UACC-257 melanoma = system: UACC-257 melanoma
MCF7 breast = system: MCF7 breast
NCI-H522 lung = system: NCI-H522 lung
786-0 renal = system: 786-0 renal
NCI/ADR-RES ovarian = system: NCI/ADR-RES ovarian
SR leukemia = system: SR leukemia
UACC-62 melanoma = system: UACC-62 melanoma
OVCAR-3 ovarian = system: OVCAR-3 ovarian
SNB-19 CNS = system: SNB-19 CNS
OVCAR-5 ovarian = system: OVCAR-5 ovarian
COLO 205 colon = system: COLO 205 colon
U251 CNS = system: U251 CNS
OVCAR-4 ovarian = system: OVCAR-4 ovarian
DU-145 prostate = system: DU-145 prostate
UO-31 renal = system: UO-31 renal
HS 578T breast = system: HS 578T breast
NCI-H23 lung = system: NCI-H23 lung
KM12 colon = system: KM12 colon
SK-MEL-5 melanoma = system: SK-MEL-5 melanoma
TK-10 renal = system: TK-10 renal
RPMI-8226 leukemia = system: RPMI-8226 leukemia
SK-MEL-2 melanoma = system: SK-MEL-2 melanoma
A498 renal = system: A498 renal
CCRF-CEM leukemia = system: CCRF-CEM leukemia
SK-OV-3 ovarian = system: SK-OV-3 ovarian
SF-539 CNS = system: SF-539 CNS
MOLT-4 leukemia = system: MOLT-4 leukemia
SF-268 CNS = system: SF-268 CNS
SNB-75 CNS = system: SNB-75 CNS
A549 NSCLC = system: A549 NSCLC
T-47D breast = system: T-47D breast
HOP-92 NSCLC = system: HOP-92 NSCLC
ACHN renal = system: ACHN renal
SK-MEL-28 melanoma = system: SK-MEL-28 melanoma
NCI-H460 lung = system: NCI-H460 lung
SF-295 CNS = system: SF-295 CNS
LOX IMVI melanoma = system: LOX IMVI melanoma
EKVX NSCLC = system: EKVX NSCLC
MALME-3M melanoma = system: MALME-3M melanoma
CAKI-1 renal = system: CAKI-1 renal
MDA-MB-435 = system: MDA-MB-435
SW-620 colon = system: SW-620 colon
PC-3 prostate = system: PC-3 prostate
HL-60(TB) leukemia = system: HL-60(TB) leukemia
OVCAR-8 ovarian = system: OVCAR-8 ovarian
HT29 colon = system: HT29 colon
M14 melanoma = system: M14 melanoma
HOP-62 NSCLC = system: HOP-62 NSCLC
IGROV1 ovarian = system: IGROV1 ovarian
MDA-MB-231 breast = system: MDA-MB-231 breast
MDA-N = system: MDA-N
HCT-15 colon = system: HCT-15 colon
SN12C renal = system: SN12C renal

CC1=C2C(=O)c3ccccc3C(=O)[C@H]2C[C@@H](N2CCCC2=O)O1
TGI (K-562 leukemia): > 100 µM | TGI (RXF 393 renal): 45.3 µM | TGI (HCC-2998 colon): > 100 µM | TGI (UACC-257 melanoma): > 100 µM | TGI (MCF7 breast): 29.9 µM | TGI (NCI-H522 lung): > 100 µM | TGI (786-0 renal): 65.5 µM | TGI (NCI/ADR-RES ovarian): 97 µM | TGI (SR leukemia): 87.7 µM | TGI (UACC-62 melanoma): > 100 µM | TGI (OVCAR-3 ovarian): 63.9 µM | TGI (SNB-19 CNS): > 100 µM | TGI (OVCAR-5 ovarian): 42.5 µM | TGI (COLO 205 colon): > 100 µM | TGI (U251 CNS): 76.4 µM | TGI (OVCAR-4 ovarian): 38.2 µM | TGI (DU-145 prostate): 54.7 µM | TGI (UO-31 renal): > 100 µM | TGI (HS 578T breast): > 100 µM | TGI (NCI-H23 lung): 57.1 µM | TGI (KM12 colon): > 100 µM | TGI (SK-MEL-5 melanoma): 32.7 µM | TGI (TK-10 renal): > 100 µM | TGI (RPMI-8226 leukemia): 49.5 µM | TGI (SK-MEL-2 melanoma): > 100 µM | TGI (A498 renal): > 100 µM | TGI (CCRF-CEM leukemia): 81.8 µM | TGI (SK-OV-3 ovarian): > 100 µM | TGI (SF-539 CNS): 49.1 µM | TGI (MOLT-4 leukemia): > 100 µM | TGI (SF-268 CNS): > 100 µM | TGI (SNB-75 CNS): 61 µM | TGI (A549 NSCLC): > 100 µM | TGI (T-47D breast): 53.5 µM | TGI (HOP-92 NSCLC): 61.7 µM | TGI (ACHN renal): > 100 µM | TGI (SK-MEL-28 melanoma): > 100 µM | TGI (NCI-H460 lung): > 100 µM | TGI (SF-295 CNS): > 100 µM | TGI (LOX IMVI melanoma): 37.8 µM | TGI (EKVX NSCLC): > 100 µM | TGI (MALME-3M melanoma): 31.8 µM | TGI (CAKI-1 renal): > 100 µM | TGI (MDA-MB-435): 33.1 µM | TGI (SW-620 colon): 66.9 µM | TGI (PC-3 prostate): > 100 µM | TGI (HL-60(TB) leukemia): > 100 µM | TGI (OVCAR-8 ovarian): > 100 µM | TGI (HT29 colon): > 100 µM | TGI (M14 melanoma): 34.9 µM | TGI (HOP-62 NSCLC): > 100 µM | TGI (IGROV1 ovarian): > 100 µM | TGI (MDA-MB-231 breast): > 100 µM | TGI (MDA-N): 30 µM | TGI (HCT-15 colon): > 100 µM | TGI (SN12C renal): > 100 µM
